{
  "source": "ChEMBL document CHEMBL1201862",
  "about": "“PubChem BioAssay data set” (2004)",
  "key": {"[1]": {"test": "enhancers of respiration in Yfh1-depleted yeast, dose response, Friedreich's ataxia, plus single-dose screen (AID 1465);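 further: yeast depleted of Yfh1p frataxin homolog grown on glycerol needing respiration; WST-1 tetrazolium dye reduction as measure of cellular dehydrogenase metabolic activity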", "assay_type": "functional"}, "Nonstructural protein 1": {"biological_target": "Nonstructural protein 1 (Influenza A virus, UniProt Q194T2)", "assay_type": "functional, Influenza A virus (A/California/07/2009(H1N1))"}, "[2]": {"test": "M. tuberculosis growth inhibition, HTS (AID 449762)", "assay_type": "functional"}, "[3]": {"test": "microbe, parasite or virus in culture", "assay_type": "functional", "settings": "Mycobacterium tuberculosis"}, "Beta-galactosidase": {"biological_target": "Beta-galactosidase (Escherichia coli, UniProt Q8VNN2)", "sequence (Q8VNN2 whole entry)": "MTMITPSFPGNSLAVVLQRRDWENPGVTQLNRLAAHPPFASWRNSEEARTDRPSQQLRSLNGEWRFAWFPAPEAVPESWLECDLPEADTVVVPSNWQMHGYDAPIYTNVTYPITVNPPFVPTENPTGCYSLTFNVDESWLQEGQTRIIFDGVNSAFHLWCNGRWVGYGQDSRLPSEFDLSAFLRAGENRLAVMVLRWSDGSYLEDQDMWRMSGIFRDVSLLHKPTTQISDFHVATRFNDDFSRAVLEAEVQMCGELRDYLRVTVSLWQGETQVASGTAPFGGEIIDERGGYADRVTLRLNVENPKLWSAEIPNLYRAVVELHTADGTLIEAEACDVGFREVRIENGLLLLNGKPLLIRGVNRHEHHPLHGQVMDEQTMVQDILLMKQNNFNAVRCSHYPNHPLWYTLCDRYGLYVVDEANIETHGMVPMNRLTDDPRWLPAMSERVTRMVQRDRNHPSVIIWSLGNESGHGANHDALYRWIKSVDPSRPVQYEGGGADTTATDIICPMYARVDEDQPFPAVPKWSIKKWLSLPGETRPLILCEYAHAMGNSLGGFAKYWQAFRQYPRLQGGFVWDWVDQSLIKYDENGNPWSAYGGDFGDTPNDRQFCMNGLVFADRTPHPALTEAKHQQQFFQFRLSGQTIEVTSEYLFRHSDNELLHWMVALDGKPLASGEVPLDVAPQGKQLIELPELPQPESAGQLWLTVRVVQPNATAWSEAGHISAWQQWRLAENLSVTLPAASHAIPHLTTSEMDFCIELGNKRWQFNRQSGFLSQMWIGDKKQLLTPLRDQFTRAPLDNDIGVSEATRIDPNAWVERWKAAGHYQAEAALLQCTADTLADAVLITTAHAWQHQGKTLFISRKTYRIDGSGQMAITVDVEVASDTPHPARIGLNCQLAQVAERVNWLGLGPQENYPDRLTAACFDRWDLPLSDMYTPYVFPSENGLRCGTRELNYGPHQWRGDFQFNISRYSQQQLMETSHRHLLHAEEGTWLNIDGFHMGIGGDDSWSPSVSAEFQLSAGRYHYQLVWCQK", "test": "Dose response counterscreen for EBI2 assay utilizing the enzyme, b-galactosidase.", "assay_type": "functional"}, "[4]": {"biological_target": "Peroxisome proliferator-activated receptor gamma/Nuclear receptor corepressor 2 (Homo sapiens, UniProt P37231+Q9Y618)", "sequence (P37231 whole entry)": "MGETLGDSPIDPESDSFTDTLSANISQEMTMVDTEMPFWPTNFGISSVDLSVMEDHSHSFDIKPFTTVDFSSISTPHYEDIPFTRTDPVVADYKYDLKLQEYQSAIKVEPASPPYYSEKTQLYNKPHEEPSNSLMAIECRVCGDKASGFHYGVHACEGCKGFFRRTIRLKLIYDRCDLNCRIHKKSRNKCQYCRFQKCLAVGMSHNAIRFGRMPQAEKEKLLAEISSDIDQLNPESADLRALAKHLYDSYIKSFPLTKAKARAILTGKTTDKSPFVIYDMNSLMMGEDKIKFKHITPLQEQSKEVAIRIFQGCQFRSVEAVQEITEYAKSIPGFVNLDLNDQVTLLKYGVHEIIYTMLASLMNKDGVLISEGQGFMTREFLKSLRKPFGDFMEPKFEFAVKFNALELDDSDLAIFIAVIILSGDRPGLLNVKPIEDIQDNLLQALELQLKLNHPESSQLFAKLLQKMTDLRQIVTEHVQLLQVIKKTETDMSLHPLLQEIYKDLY", "sequence (Q9Y618 whole entry)": "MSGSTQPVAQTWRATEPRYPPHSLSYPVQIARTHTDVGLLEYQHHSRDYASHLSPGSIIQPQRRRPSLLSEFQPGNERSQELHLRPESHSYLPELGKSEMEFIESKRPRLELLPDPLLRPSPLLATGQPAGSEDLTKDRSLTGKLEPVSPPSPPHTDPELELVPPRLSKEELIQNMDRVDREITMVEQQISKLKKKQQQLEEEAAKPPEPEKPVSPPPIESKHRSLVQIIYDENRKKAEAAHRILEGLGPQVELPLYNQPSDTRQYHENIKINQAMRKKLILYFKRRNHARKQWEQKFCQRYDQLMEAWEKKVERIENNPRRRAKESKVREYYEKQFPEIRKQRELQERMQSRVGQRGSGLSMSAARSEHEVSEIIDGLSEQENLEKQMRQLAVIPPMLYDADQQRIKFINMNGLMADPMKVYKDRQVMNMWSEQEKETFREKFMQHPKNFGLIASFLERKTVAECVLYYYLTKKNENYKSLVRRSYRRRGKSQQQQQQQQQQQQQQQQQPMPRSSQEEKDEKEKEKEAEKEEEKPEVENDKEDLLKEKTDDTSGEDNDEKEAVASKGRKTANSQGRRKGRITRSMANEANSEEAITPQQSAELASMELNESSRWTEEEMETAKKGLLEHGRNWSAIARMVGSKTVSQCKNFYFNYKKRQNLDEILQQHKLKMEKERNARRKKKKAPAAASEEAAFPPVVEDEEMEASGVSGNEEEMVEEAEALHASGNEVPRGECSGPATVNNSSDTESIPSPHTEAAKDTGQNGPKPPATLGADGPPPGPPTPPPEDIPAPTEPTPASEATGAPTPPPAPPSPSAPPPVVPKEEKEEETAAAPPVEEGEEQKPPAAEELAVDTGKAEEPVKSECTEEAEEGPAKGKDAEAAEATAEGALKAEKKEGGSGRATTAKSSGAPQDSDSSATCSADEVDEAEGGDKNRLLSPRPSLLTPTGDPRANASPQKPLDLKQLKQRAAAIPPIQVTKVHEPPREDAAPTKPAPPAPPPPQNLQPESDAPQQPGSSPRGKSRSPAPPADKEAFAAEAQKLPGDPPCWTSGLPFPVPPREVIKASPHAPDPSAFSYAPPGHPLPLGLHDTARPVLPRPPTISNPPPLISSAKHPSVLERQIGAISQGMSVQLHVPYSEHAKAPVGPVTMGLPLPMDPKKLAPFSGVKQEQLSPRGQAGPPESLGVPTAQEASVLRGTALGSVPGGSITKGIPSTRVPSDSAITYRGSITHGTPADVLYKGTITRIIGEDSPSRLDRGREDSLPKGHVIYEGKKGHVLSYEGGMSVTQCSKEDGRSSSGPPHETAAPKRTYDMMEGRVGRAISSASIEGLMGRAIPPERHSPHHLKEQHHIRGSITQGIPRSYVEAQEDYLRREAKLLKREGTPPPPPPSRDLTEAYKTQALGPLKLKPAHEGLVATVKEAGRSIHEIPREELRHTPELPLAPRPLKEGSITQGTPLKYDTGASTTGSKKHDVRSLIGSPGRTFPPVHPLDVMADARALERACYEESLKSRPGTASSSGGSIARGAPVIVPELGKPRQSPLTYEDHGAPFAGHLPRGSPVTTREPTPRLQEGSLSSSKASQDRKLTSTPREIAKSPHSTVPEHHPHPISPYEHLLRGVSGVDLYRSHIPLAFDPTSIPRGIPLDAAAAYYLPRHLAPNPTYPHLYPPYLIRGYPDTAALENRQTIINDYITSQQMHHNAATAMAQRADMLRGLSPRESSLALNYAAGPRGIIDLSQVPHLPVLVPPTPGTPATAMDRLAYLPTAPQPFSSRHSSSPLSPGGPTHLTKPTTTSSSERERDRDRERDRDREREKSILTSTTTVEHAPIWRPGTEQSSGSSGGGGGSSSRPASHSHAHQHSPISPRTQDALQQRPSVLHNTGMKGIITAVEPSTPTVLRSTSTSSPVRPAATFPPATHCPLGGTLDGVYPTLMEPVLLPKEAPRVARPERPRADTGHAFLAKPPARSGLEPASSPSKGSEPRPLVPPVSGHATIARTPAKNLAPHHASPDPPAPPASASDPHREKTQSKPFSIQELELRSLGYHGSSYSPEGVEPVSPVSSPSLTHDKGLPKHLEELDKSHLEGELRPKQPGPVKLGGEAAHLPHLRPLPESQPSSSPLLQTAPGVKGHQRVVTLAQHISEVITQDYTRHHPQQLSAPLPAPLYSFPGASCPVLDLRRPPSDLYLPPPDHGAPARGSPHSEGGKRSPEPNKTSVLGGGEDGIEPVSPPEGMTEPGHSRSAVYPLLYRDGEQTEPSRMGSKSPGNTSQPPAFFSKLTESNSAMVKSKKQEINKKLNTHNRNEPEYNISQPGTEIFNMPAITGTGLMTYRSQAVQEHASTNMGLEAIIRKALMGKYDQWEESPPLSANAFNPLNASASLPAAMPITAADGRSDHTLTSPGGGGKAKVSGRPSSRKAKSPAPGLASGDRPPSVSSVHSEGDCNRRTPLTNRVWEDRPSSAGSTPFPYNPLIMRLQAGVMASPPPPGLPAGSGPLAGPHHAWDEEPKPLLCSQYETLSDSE", "test": "Counterscreen for NR2E3 inverse agonists: TR-FRET-based biochemical high throughput dose response assay to identify inverse agonists of the interaction between peroxisome proliferator-activated receptor gamma (PPARg) and nuclear receptor co-repressor 2 (NCOR2).", "assay_type": "functional"}, "[5]": {"biological_target": "T1, Photoreceptor-specific nuclear receptor (Homo sapiens, UniProt Q9Y5X4)", "T1 sequence (Q9Y5X4 whole entry)": "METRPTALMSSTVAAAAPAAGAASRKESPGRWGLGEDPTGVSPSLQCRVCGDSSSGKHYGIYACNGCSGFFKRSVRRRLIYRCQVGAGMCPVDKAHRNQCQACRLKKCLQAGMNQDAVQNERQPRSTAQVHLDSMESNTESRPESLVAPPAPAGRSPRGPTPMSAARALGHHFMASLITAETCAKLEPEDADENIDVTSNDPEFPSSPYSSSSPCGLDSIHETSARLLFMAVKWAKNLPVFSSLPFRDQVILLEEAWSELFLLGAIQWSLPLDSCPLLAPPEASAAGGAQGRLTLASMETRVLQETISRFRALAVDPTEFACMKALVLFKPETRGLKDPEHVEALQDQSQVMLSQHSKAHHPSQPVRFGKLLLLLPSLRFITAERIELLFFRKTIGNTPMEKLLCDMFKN", "test": "NR2E3 inverse agonists, dose response, biochemical, TR-FRET (AID 463256)", "assay_type": "functional"}, "[6]": {"biological_target": "Luciferin 4-monooxygenase (Photinus pyralis, UniProt P08659)", "test": "firefly luciferase enzyme inhibitors, dose response, biochemical, luminescence (AID 1891)"}, "[7]": {"test": "Luminescence Cell-Based Dose Confirmation HTS to Identify Inhibitors of Platelet Dense Granule Release. [Related pubchem assays: 1663 (Primary HTS), 1678 (Summary of Project)]", "assay_type": "functional"}, "[8]": {"test": "Fluorescence Cell-Based Dose Response to Identify Inhibitors of Thrombin Receptor-Activating Peptide SFLLRN-Mediated P-Selectin Induction on Platelets. [Related pubchem assays: 1663 (Primary HTS), 1889 (retest at dose ), 1891 (counterscreen), 1678 (Project Summary)]", "assay_type": "functional"}, "[9]": {"test": "inhibitors of Vif binding to APOBEC3G peptide, primary screen, biochemical, TR-FRET, GST-Vif 1-94, biotin-A3G peptide, dose response retest (AID 1117319);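 further: TR-FRET signal of purified GST-Vif binding a biotinylated A3G peptide; inhibitors lower the FRET signal by blocking Vif and A3G binding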", "assay_type": "functional"}, "NADPH oxidase 1 [10]": {"biological_target": "T2, NADPH oxidase 1 (Homo sapiens, UniProt Q9Y5S8)", "T2 sequence (Q9Y5S8 whole entry)": "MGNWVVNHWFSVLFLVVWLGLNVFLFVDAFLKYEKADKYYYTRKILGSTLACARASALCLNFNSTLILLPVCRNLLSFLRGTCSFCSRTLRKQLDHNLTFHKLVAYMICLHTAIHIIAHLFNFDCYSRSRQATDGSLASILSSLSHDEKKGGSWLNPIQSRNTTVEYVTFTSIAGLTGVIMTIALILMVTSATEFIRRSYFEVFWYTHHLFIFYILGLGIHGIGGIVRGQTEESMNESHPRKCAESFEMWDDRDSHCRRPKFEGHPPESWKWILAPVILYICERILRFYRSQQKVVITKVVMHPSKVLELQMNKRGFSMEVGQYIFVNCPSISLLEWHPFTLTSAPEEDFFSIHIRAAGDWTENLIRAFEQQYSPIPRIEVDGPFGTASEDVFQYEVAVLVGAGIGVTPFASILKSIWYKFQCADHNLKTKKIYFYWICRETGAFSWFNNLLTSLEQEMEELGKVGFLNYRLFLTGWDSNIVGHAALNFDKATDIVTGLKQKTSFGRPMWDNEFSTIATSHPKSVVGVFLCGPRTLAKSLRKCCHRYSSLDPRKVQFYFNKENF", "test": "Late-stage luminescence-based cell-based dose response assay to identify inhibitors of NADPH oxidase 1 (NOX1): Synthesized analogs 3.", "assay_type": "functional"}, "Protein Tat": {"biological_target": "Protein Tat (Human immunodeficiency virus type 1 group M subtype B (isolate HXB2)(HIV-1), UniProt P04608)", "assay_type": "functional"}, "NADPH oxidase 1 [11]": {"biological_target": "T2, NADPH oxidase 1", "test": "Late-stage luminescence-based cell-based dose response assay to identify inhibitors of NADPH oxidase 1 (NOX1): Synthesized analogs 2.", "assay_type": "functional"}, "Estrogen receptor": {"biological_target": "T3, Estrogen receptor (Homo sapiens, UniProt P03372)", "T3 sequence (P03372 whole entry)": "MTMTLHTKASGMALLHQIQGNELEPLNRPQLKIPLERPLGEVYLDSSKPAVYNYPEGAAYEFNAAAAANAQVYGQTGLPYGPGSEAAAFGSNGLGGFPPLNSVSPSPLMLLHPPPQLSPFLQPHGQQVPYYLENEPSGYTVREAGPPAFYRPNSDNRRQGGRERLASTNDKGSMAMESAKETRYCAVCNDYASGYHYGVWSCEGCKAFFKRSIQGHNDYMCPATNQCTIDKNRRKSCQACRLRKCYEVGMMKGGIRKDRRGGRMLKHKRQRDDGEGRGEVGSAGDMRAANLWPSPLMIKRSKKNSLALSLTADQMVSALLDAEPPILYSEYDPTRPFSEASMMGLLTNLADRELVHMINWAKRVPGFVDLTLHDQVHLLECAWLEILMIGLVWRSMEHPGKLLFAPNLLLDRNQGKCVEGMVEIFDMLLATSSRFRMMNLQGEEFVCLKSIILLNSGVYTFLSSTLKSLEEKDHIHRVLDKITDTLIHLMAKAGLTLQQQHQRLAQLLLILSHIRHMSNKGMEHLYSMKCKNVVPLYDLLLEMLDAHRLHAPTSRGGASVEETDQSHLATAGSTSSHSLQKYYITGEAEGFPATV", "test": "potentiators of ERα–SRC-1 coactivator binding, dose response, biochemical, TR-FRET, ERα LBD (AID 737)"}, "[12]": {"biological_target": "T1, Photoreceptor-specific nuclear receptor", "assay_type": "functional, cell-based"}, "[13]": {"biological_target": "Sphingosine 1-phosphate receptor 2 (Homo sapiens, UniProt O95136)", "test": "Dose Response Cell Based Assay for Agonists of the S1P2 Receptor. [Related pubchem assays: 729, 736, 843 ]", "assay_type": "functional"}, "[14]": {"test": "P. falciparum Dd2 growth inhibitors, dose response, SYBR Green, dry powder samples, set 4 (AID 1159572)", "assay_type": "functional, cell-based"}},
  "note": "Active and inactive are the calls of the source.",
  "data": [
    {"smiles": "CC(C)(C)C1=CC(=O)C(N2CCOCC2)=CC1=O", "values": [
      {"measurement": "EC50", "setting": "[1]", "value": "> 100 µM (active)"},
      {"measurement": "IC50", "setting": "Nonstructural protein 1", "value": "> 100 µM (active)"}
    ]},
    {"smiles": "O=C(c1cc2cc(Cl)ccc2[nH]1)N1CCN(Cc2ccc3c(c2)OCO3)CC1", "values": [
      {"measurement": "IC50", "setting": "[2]", "value": "> 100 µM (active)"},
      {"measurement": "CC50", "setting": "[3]", "value": "> 40 µM (active)"},
      {"measurement": "IC50", "setting": "Beta-galactosidase", "value": "> 80 µM (inactive)"}
    ]},
    {"smiles": "Cc1cc(C)nc(NS(=O)(=O)c2ccc(NC(=O)CSc3nc[nH]n3)cc2)n1", "values": [
      {"measurement": "IC50", "setting": "[4]", "value": "> 39.8 µM (not active)"},
      {"measurement": "IC50", "setting": "[5]", "value": "> 39.8 µM (not active)"}
    ]},
    {"smiles": "CCc1ccc(S(=O)(=O)N/N=C\\c2ccc([N+](=O)[O-])o2)cc1", "values": [
      {"measurement": "EC50", "setting": "[6]", "value": "> 112 µM (not active)"},
      {"measurement": "EC50", "setting": "[7]", "value": "2.02 µM (active)"},
      {"measurement": "EC50", "setting": "[8]", "value": "< 30 µM (active)"}
    ]},
    {"smiles": "Cn1cc(CN2CCN(CCO)CC2)c(-c2ccc(Oc3ccccc3)cc2)n1", "values": [
      {"measurement": "IC50", "setting": "[9]", "value": "> 100 µM (active)"}
    ]},
    {"smiles": "CN1c2ccccc2Sc2cc(C(=O)c3ccccc3)ccc21", "values": [
      {"measurement": "IC50", "setting": "NADPH oxidase 1 [10]", "value": "> 20 µM (not active)"}
    ]},
    {"smiles": "COc1ccccc1N1C(=O)CC(Nc2ccc(N3CCOCC3)cc2)C1=O", "note": "(stereo not drawn)", "values": [
      {"measurement": "IC50", "setting": "Protein Tat", "value": "20.1 µM (inconclusive)"}
    ]},
    {"smiles": "CN1c2ccc(Br)cc2Sc2cc(Br)ccc21", "values": [
      {"measurement": "IC50", "setting": "NADPH oxidase 1 [11]", "value": "> 50 µM (not active)"}
    ]},
    {"smiles": "Cc1ccc(NC(=O)CSc2nnnn2-c2ccc3c(c2)OCO3)cc1C", "values": [
      {"measurement": "EC50", "setting": "Estrogen receptor", "value": "8.47 µM (active)"},
      {"measurement": "IC50", "setting": "[12]", "value": "0.581 µM (active)"}
    ]},
    {"smiles": "CCOC(=O)c1c(C)n(C)c2ccc(OCC(O)Cn3nc(C)cc3C)cc12", "note": "(stereo not drawn)", "values": [
      {"measurement": "EC50", "setting": "[13]", "value": "4.71 µM (active)"}
    ]},
    {"smiles": "COc1ccc2c3c([nH]c2c1)[C@H](CO)N(C(C)=O)CC31CCN(C(=O)CN2CCOCC2)CC1", "values": [
      {"measurement": "AC50", "setting": "[14]", "value": "2.59 µM (active)"}
    ]}
  ]
}
